Assay results published in article PMC9095466 (Nature, 2022).
Where “and” joins values, the source holds several entries; their conditions need not be identical. Identical values can stand only once. Like-named read-outs stand apart in the source and are kept apart here.

Columns and labels:
[1] = target: human TMPRSS2 (Homo sapiens, UniProt O15393); experiment: cell-based; conditions: for inhibition at 0.01 µM: Vero C1008, 10 nM compound, 24 h, vs untreated/vehicle TMPRSS2-expressing Vero E6 cells, read-out: inhibition of TMPRSS2 activity (reduction of substrate proteolysis); for TMPRSS2 relative activity: technical duplicates
[2] = target: mouse TMPRSS2 (Mus musculus, UniProt Q9JIQ8); experiment: cell-based
[3] = target: T1, Recombinant human DESC1 (Homo sapiens, UniProt Q9UL52); experiment: Protease selectivity, Ki on recombinant protease; assay type: biochemical; conditions: mean ± s.d., max concentration 10 µM; read-out: Ki DESC1
T1 construct: made in house
T1 sequence (Q9UL52 1-423): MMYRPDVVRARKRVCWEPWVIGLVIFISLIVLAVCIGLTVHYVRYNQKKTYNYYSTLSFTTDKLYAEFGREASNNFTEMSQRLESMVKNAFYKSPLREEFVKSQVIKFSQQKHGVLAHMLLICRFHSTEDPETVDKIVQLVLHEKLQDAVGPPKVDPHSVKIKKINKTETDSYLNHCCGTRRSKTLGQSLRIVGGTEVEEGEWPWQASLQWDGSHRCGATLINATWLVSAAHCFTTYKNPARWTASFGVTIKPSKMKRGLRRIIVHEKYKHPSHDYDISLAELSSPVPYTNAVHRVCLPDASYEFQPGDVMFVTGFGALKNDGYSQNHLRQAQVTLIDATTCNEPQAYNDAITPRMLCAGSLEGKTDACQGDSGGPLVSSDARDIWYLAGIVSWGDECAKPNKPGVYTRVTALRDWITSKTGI

[4] = target: T2, Recombinant human furin (Homo sapiens, UniProt P09958); experiment: Protease selectivity, Ki on recombinant protease; assay type: biochemical; conditions: mean ± s.d., max concentration 10 µM; read-out: Ki Furin
T2 construct: purchased Bio-Techne

[5] = target: T3, human cathepsin L (Homo sapiens, UniProt P07711); experiment: Protease selectivity, Ki on protease; assay type: biochemical; conditions: mean ± s.d., max concentration 10 µM; read-out: Ki Cathepsin L
T3 construct: purchased Bio-Techne

[6] = tested on: SARS-CoV-2 lineage B strain (VIDO); experiment: microbe, parasite or virus in culture; assay type: cell-based; conditions: for Nucleocapsid / dsRNA: Figure 2a, two replicates; for Nucleocapsid: DMSO control about 91-94; for dsRNA: DMSO control about 93-95; for EC50 / inhibition at 0.1 µM: Severe acute respiratory syndrome coronavirus 2, Calu-3; for EC50: read-out: SARS-CoV-2 VIDO Nucleocapsid EC50 ± SE; for inhibition at 0.1 µM: read-out: inhibition of SARS-CoV-2 infection
[7] = tested on: SARS-CoV-2 B.1.1.7 (Alpha); experiment: microbe, parasite or virus in culture; assay type: cell-based; conditions: UK
[8] = Cytotoxicity CC50 in Calu-3 lung epithelial cells; assay type: cell-based, human; conditions: human; for viability at 24 h, 300 µM: Log [inhibitor] -3.52; for viability at 24 h, 100 µM: Log [inhibitor] -4.00; for viability at 24 h, 30 µM: Log [inhibitor] -4.52; for viability at 24 h, 10 µM: Log [inhibitor] -5.00; for viability at 24 h, 3 µM: Log [inhibitor] -5.52; for viability at 24 h, 0.3 µM: Log [inhibitor] -6.52; for viability at 24 h, 0.03 µM: Log [inhibitor] -7.52; for viability at 24 h, 0.003 µM: Log [inhibitor] -8.52
[9] = tested on: SARS-CoV-2 B.1.617.2 (Delta); parameters: species or system K18-hACE2 mice; conditions: mouse, in vivo
[10] = target: T4, Recombinant human matriptase (Homo sapiens, UniProt Q9Y5Y6); experiment: Protease selectivity, Ki on recombinant protease; assay type: biochemical; conditions: mean ± s.d., max concentration 10 µM; read-out: Ki Matriptase
T4 construct: made in house
T4 sequence (Q9Y5Y6 1-855): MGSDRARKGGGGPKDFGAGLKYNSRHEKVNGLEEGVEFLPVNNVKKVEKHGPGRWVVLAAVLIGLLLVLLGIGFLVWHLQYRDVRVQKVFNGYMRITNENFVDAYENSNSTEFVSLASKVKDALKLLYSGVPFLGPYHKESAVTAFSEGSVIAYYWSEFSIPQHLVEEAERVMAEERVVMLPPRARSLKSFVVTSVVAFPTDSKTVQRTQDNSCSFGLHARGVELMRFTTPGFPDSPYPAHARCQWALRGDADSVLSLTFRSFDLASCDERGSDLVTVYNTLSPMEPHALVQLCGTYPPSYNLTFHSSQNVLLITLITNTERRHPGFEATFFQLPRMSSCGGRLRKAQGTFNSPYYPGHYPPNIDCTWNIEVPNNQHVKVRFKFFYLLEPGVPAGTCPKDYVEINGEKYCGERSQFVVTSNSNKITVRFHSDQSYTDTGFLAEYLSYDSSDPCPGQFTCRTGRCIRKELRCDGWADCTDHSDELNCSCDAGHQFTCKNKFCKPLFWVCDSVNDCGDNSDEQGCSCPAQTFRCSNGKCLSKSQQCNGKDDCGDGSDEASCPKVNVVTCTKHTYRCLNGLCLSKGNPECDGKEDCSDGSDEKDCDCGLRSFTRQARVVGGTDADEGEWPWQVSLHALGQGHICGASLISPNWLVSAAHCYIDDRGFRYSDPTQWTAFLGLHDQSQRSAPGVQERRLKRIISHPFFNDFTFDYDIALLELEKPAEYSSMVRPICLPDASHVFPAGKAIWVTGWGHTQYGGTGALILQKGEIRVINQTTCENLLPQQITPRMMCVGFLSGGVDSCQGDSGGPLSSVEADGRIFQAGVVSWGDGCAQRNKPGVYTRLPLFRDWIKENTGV

[11] = target: T5, Recombinant human hepsin (Homo sapiens, UniProt P05981); experiment: Protease selectivity, Ki on recombinant protease; assay type: biochemical; conditions: mean ± s.d., max concentration 10 µM; read-out: Ki Hepsin
T5 construct: made in house

[12] = target: T6, human thrombin (Homo sapiens, UniProt P00734); experiment: Protease selectivity, Ki on protease; assay type: biochemical; conditions: mean ± s.d., max concentration 10 µM; read-out: Ki Thrombin
T6 construct: purchased MilliporeSigma

[13] = tested on: Calu-3 cells; experiment: Cytotoxicity CC50 in Calu-3 lung epithelial cells; assay type: cell-based, human; conditions: single replicates
[14] = Calu-3 cells, read-out: % of Viability, Average (n=2)
[15] = Calu-3 cells, single replicates, read-out: % of Viability

Sequence of human TMPRSS2 (O15393 whole entry): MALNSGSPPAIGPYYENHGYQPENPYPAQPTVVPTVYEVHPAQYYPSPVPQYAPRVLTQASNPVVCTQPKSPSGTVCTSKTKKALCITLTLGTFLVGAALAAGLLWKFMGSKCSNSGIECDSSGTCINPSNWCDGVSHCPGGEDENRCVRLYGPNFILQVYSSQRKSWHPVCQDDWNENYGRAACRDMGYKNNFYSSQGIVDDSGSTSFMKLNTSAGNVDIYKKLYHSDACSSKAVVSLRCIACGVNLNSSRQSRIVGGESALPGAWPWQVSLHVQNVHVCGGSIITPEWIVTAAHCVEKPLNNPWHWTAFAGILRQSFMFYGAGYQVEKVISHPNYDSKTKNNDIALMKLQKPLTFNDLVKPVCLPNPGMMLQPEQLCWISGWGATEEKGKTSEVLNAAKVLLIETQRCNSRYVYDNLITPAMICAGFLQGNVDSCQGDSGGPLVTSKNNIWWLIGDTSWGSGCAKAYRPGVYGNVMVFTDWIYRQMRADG
Sequence of mouse TMPRSS2 (Q9JIQ8 whole entry): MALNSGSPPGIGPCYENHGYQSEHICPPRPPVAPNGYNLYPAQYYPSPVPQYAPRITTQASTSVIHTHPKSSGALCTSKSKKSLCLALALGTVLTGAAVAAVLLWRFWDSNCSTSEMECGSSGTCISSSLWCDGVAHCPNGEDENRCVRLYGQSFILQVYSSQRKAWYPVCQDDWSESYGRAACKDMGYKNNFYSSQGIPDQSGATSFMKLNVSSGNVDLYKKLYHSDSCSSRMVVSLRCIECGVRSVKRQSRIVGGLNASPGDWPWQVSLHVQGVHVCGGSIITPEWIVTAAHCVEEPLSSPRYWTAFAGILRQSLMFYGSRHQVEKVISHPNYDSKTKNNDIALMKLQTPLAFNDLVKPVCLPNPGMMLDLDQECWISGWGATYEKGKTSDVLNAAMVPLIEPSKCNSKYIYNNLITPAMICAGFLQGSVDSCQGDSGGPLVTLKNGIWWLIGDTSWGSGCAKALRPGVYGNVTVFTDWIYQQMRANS
T2 sequence (P09958 108-794): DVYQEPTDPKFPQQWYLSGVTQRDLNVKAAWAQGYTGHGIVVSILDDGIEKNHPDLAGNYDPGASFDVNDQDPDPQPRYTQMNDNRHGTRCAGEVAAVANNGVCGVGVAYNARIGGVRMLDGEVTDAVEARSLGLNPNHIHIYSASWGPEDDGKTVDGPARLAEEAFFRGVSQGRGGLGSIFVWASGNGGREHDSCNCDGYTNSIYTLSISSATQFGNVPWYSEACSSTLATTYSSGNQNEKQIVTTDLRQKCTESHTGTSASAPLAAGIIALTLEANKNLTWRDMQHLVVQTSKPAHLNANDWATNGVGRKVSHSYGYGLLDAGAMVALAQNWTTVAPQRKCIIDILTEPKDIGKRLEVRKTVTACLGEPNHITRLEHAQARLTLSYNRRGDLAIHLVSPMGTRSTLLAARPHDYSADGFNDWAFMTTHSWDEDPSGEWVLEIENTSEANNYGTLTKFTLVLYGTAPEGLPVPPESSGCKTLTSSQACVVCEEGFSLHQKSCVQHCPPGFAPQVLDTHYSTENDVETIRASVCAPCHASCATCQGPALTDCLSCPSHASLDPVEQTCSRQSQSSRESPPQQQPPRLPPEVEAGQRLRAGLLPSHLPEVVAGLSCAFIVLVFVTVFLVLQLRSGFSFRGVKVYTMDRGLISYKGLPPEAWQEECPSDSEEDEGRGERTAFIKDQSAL
T3 sequence (P07711 114-333): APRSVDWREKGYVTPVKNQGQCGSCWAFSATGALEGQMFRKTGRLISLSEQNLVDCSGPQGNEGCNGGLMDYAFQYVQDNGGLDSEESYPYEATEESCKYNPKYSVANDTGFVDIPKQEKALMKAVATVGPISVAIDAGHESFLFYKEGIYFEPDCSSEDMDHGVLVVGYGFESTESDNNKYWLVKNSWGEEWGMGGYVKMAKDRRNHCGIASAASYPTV
T5 sequence (P05981 whole entry): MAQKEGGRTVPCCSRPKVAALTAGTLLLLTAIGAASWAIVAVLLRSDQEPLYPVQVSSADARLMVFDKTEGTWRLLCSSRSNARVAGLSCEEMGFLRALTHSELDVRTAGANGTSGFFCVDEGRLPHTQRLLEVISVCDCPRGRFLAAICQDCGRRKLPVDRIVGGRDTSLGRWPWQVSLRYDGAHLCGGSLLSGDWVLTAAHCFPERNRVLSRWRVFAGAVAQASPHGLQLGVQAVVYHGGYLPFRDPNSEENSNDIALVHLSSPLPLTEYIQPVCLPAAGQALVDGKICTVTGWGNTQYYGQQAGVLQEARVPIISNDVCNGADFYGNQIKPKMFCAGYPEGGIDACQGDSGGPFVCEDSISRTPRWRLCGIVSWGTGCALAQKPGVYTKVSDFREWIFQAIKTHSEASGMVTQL

For `CS(=O)(=O)NC(CCC(N)=O)C(=O)NC(Cc1ccccc1)C(=O)NC(CCCNC(=N)N)C(=O)c1nc2ccccc2s1` (stereo not shown) [Compound N-0385, Ms-QFR-kbt], the “TMPRSS2 activity (%)” value ([1]; Figure 1B, single experiments N1-N3) was 12.847% and 18.5887% and 21.0267%, the inhibition at 0.01 µM [1] was 83% and the IC50 ([2]; Vero E6 cells transfected with mTMPRSS2, 24 h, mean ± SD, n = 3, read-out: mouse TMPRSS2 (mTmprss2) activity IC50) was 12.3 ± 1.9 nM. For the same compound, the IC50 ([2]; mTMPRSS2, mean of independent experiments, Figure S1C, read-out: IC50 Mean) was 12.3 nM, the IC50 ([2]; mTMPRSS2, single experiments N1-N3, Figure S1C, read-out: IC50 determined from independant experiments) was 12.2 nM and 14.3 nM and 10.4 nM and the Ki [3] was 26.6 ± 8.8 nM. For the same compound, the Ki [4] was > 10 µM, the Ki [5] was 6.29 ± 3.61 µM and the Nucleocapsid [6] was 1.14 and 1.542. For the same compound, the dsRNA [6] was 2.011 and 2.808, the EC50 [6] was 2.8 ± 1.4 nM and the inhibition at 0.1 µM [6] was > 99%. The “Figure 2b dose-response, Mean” value ([6]; log [C] (nM) 0.20412) was 56.2346, the “Figure 2b dose-response, Mean” value ([6]; log [C] (nM) 0.90309) was 18.4653 and the “Figure 2b dose-response, Mean” value ([6]; log [C] (nM) 1.60206) was 7.161. The “Figure 2b dose-response, Mean” value ([6]; log [C] (nM) 2.30103) was 5.446, the “Figure 2b dose-response, Mean” value ([6]; log [C] (nM) 3) was 1.469 and the “Figure 2b dose-response, Mean” value ([6]; log [C] (nM) -0.49485) was 74.438. For the same compound, the “Figure 2b dose-response, Mean” value ([6]; log [C] (nM) -1.19382) was 85.6866, the “infection, dose response Figure 3c (nucleocapsid)” value ([7]; log [C] (nM) -0.49485) was 100.507 and 68.1892 and 93.9276 and 91.6566 and 100 and the “infection, dose response Figure 3d (dsRNA)” value ([7]; log [C] (nM) -0.49485) was 68.6997 and 68.3556 and 77.9197 and 68.9 and 100. For the same compound, the “infection, dose response Figure 3c (nucleocapsid)” value ([7]; log [C] (nM) -1.19382) was 96.9973 and 100 and 88.1248, the “infection, dose response Figure 3d (dsRNA)” value ([7]; log [C] (nM) -1.19382) was 83.4401 and 68.4372 and 71.2209 and 84.9067 and 100 and the CC50 at 24 h ([8]; Calu-3 lung epithelial cells, n = 2, read-out: CC50 in Calu-3 cells) was 3.47 mM. For the same compound, the “weight gain (six days after infection)” value [9] was 2% and the “weight loss (six days after infection)” value [9] was 5%.

In the case of `N=C(N)NCCCCC(=O)N[C@@H](CCC(=O)O)C(=O)N[C@@H](Cc1ccccc1)C(=O)N[C@@H](CCCNC(=N)N)C(=O)c1nc2ccccc2s1` [Compound N-0438, (H)REFR-kbt], the TMPRSS2 relative activity ([1]; 1.60E-10 M) is reported as 86.6686 and 86.7823, the TMPRSS2 relative activity ([1]; 2.00E-08 M) is reported as 4.266 and 6.221 and the TMPRSS2 relative activity ([1]; 3.20E-11 M) is reported as 102.504 and 103.881. For the same compound, the TMPRSS2 relative activity ([1]; 4.00E-09 M) was 35.2539 and 37.178, the TMPRSS2 relative activity ([1]; 8.00E-10 M) was 70.1907 and 73.6892 and the IC50 ([1]; TMPRSS2, mean of independent experiments, Figure 1C, read-out: IC50 Mean) was 5.17 nM. For the same compound, the inhibition at 0.01 µM [1] was 84%, the IC50 ([1]; Vero E6 cells expressing human TMPRSS2, 24 h with fluorogenic substrate, read-out: TMPRSS2 IC50 ± SD) was 5.2 ± 5.4 nM and the Ki [10] was 1.11 ± 0.09 nM. For the same compound, the Ki [11] was 0.52 ± 0.07 nM, the Ki [3] was 31 ± 3 nM and the Ki [12] was > 10 µM. For the same compound, the Ki [4] was > 10 µM, the Ki [5] was > 10 µM and the Nucleocapsid [6] was 4.61 and 18.8861. The dsRNA [6] was 14.5614 and 27.1131, the EC50 [6] was 35.7 ± 24.5 nM and the inhibition at 0.1 µM [6] was > 88%. For the same compound, the “Figure 2b dose-response, Mean” value ([6]; log [C] (nM) 0.20412) was 87.8313, the “Figure 2b dose-response, Mean” value ([6]; log [C] (nM) 0.90309) was 62.8653 and the “Figure 2b dose-response, Mean” value ([6]; log [C] (nM) 1.60206) was 44.3084. For the same compound, the “Figure 2b dose-response, Mean” value ([6]; log [C] (nM) 2.30103) was 28.0955, the “Figure 2b dose-response, Mean” value ([6]; log [C] (nM) 3) was 3.627 and the “Figure 2b dose-response, Mean” value ([6]; log [C] (nM) -0.49485) was 89.252. The “Figure 2b dose-response, Mean” value ([6]; log [C] (nM) -1.19382) was 94.5427, the viability at 24 h, 3000 µM ([8]; Calu-3 cells, Log [inhibitor] -2.52, read-out: % of Viability, Average (n=2)) was 25.5% and the viability at 24 h, 300 µM [8, 14] was 87.5%. For the same compound, the viability at 24 h, 300 µM [8, 15] was 86%, the viability at 24 h, 100 µM [8, 14] was 86% and the viability at 24 h, 100 µM [8, 15] was 81%. The viability at 24 h, 30 µM [8, 14] was 89%, the viability at 24 h, 30 µM [8, 15] was 89% and the viability at 24 h, 10 µM [8, 14] was 89%. It also gave a viability at 24 h, 10 µM [8, 15] of 93%, a viability at 24 h, 3 µM [8, 14] of 99% and a viability at 24 h, 3 µM [8, 15] of 101%. For the same compound, the viability at 24 h, 0.3 µM [8, 14] was 108%, the viability at 24 h, 0.3 µM [8, 15] was 111% and the viability at 24 h, 0.03 µM [8, 14] was 103%. For the same compound, the viability at 24 h, 0.03 µM [8, 15] was 107%, the viability at 24 h, 0.003 µM [8, 14] was 104% and the viability at 24 h, 0.003 µM [8, 15] was 109%. For the same compound, the CC50 at 24 h ([8]; Calu-3 cells, unit not given for CC50, read-out: CC50) was 0.98 mM, the “% of Viability” value ([13]; Log [inhibitor] -2.52) was 12% and 39% and the “% of Viability” value ([13]; Log [inhibitor] -4.00) was 91%. The “% of Viability” value ([13]; Log [inhibitor] -5.00) was 85% and the “% of Viability” value ([13]; Log [inhibitor] -5.52) was 97%.
